Assay results taken from patent US20220304286A1, “SYSTEMS AND METHODS FOR IN VIVO DUAL RECOMBINASE-MEDIATED CASSETTE EXCHANGE (dRMCE) AND DISEASE MODELS THEREOF” (CEDARS-SINAI MEDICAL CENTER, priority 2019, published 2022).
Entries after “also recorded” stand apart in the source; their conditions may differ.

Experiments:
[1] = system: NPCs (tdTomato+ non-tumor control cells); test: High-throughput drug testing: live-cell imaging of proliferation, non-tumor control NPCs; type: cell-based, mouse; conditions: imaged for 92 hours, paired toxicity screening
Description: (§1) In high-throughput drug testing experiments, 10.000 cell from the cell lines generated from tumor dissociation and non-tumor control cells were plated in 96 well plates. 24 hours after the seeding appropriate concentration of each drug (1 μM for Vacquinol-1(Sigma-Aldrich, SML1187) and 0.5 μM for AKT 1/2 kinase inhibitor (Sigma- Aldrich, A6730)) was added to the media and cells were imaged for 92 hours in phase contrast using Incucyte S3 System. Images were collected every 2 hours using Incucyte S3 Software. Cell proliferation images analysis was done with Incucyte S3 software and normalized results presented and analyzed with Graphpad Prism 7.
(§2) Mice were euthanized in CO2 chamber and brains were collected in PBS. Immediately, EGFP+ tissue was micro-dissected under a Revolve Hybrid Microscope (Echo Labs, San Diego, Calif.). If allowed by the size of the tumor, some remains of the brain with residual tumor tissue was fixed in 4% PFA for tissue analysis. Microdissected tissue was mechanically dissociated into <1 mm pieces and further digested with Collagenase IV (Worthington Biochemical, Lakewood, N.J.), and DNAse I (Worthington Biochemical, Lakewood, N.J.). The resultant single cell suspension was filtered through […] cell strainer (Stellar Scientific, Baltimore, Md.) and erythrocytes were lysed with ACK lysis buffer (Thermo Fisher Scientific, Waltham, Mass.). Single cell suspensions were split into 3 parts: First, for scRNAseq or sc-ATACseq experiments, GFP+ cells from single cell samples were FACS sorted (into 1.5 ml tubes for 10× Chromium). A secondary fraction was used for in vitro cell line establishment. […]

[2] = system: MADR K27M tumor cells; test: High-throughput drug testing: live-cell imaging of proliferation, MADR K27M tumor cell lines; type: cell-based, mouse; conditions: imaged for 92 hours, Incucyte phase contrast, 4 biological replicates
Description: as §1
as §2, with “Mass.).” for “Mass.). Single cell suspensions were split into 3 parts: First, for scRNAseq or sc-ATACseq experiments, GFP+ cells from single cell samples were FACS sorted (into 1.5 ml tubes for 10× Chromium). A secondary fraction was used for in vitro cell line establishment.”

[3] = system: K27M tumor cells; conditions: earlier finding, no details given; cited from earlier work
[4] = AKT 1/2 kinase inhibitor 0.5 μM

Row | SMILES | cell proliferation of NPCs [1, 4] | cell proliferation of NPCs ([1]; AKT 1/2 kinase inhibitor 0.5 μM, listed as Akt1/2 inhibitor) | cell proliferation of K27M tumor population [2, 4] | toxicity to K27M tumor cells (previously identified) [3] | cell proliferation of NPCs ([1]; Vacquinol-1 1 μM) | cell proliferation of K27M tumor population ([2]; Vacquinol-1 1 μM)
1 | O=c1[nH]c2ccccc2n1C1CCN(Cc2ccc(-c3nc4cc5nc[nH]c5cc4nc3-c3ccccc3)cc2)CC1 [Akt1/2 kinase inhibitor] | decreases proliferation | similarly inhibited NPC proliferation | decreases proliferation | selectively toxic to K27M tumor cells | – | –
2 | OC(c1cc(-c2ccc(Cl)cc2)nc2ccccc12)C1CCCCN1 (stereo not shown) [Vacquinol-1] | – | – | – | selectively toxic to K27M tumor cells | does not alter NPC culture growth | inhibits K27M growth; also recorded: decreases proliferation preferentially
